Values of other authors in patent US4146613A, “Oral anti-diabetic drug composition” (THERA Gesellschaft fur Patentverwertung mbH, priority 1976, dated 1979).

Tested on: blood sugar

Substance: kallikrein
- persistence of blood sugar lowering effect (after administering for several days, for example after three days): the effect would diminish or disappear
- blood sugar lowering (also if applied orally, Frey et al 1932): lower slightly the blood sugar
